Data reported in US20030073654A1, “Stabilized transient gene expression” (Genespan Corporation, priority 1996, published 2003).
Each block holds one molecule with its values, some of them ahead of it.

How the values were obtained:
SW480 cells [1] = test: Influence of polysaccharide size/type on transient expression (protocol of plate #6, polysaccharide substituted for chondroitin sulfate); assay type: cell-based, human; conditions: for FACTOR G / FACTOR K / FACTOR X / Total β-gal (ng) from 2 × 10^4 Cells in 14 Days: Table 13; for effectiveness in enhancing transient expression: running text of Example 10
Description: A 15 plate experiment was conducted in which the chemical compounds indicated in Table 9 were added to the culture medium of SW480 cells that were transfected in 6-well plates as detailed in Example 1. […] The chondroitin sulfate used for these experiments was as in Example 2. The most efficacious formulations, in order of their effectiveness, were those used in plates 6, 3, 13 and 14. […] The following experiments were conducted to determine the effects of polysaccharide size on their effectiveness in enhancing transient expression. […] The chondroitin sulfate used for these comparisons was obtained either from Biorelease, or was prepared by treating large (>20 kDa) chondroitin sulfate (Type A) with alkali, then acid. The size of the non-purchased preparations was determined by electrophoretic comparison with Biorelease 4 kDa chondroitin sulfate using PhastSystem gels in accord with the manufacturer's instructions (Pharmacia). The results are shown in Table 11, in which the ranges observed for X and […] in the four trials are shown in parentheses below the averages. […] Table 12 also presents the results of the Limulus amebocyte lysate (LAL) endotoxin assay, expressed as endotoxin units per ml (Eu/ml), which was performed on all media used before, during and after transfection, but before adding serum. This assay provides a quantitative measure for Gram-negative bacterial endotoxin in aqueous solutions. […] The LAL results in Table 12 are those for the post-transfection media, assayed prior to adding serum. All solutions used for these experiments were prepared in a hood using standard aseptic procedures.

SW480 cells [2] = test: Assay for cytotoxicity (trypan blue viability, 8 day static culture); assay type: cell-based, human; conditions: Table 13, protocol of Example 10
Description: 1. […] However, it should be understood that various types of cells vary in their sensitivity to different chemical compounds. Thus, while SW480 cells may be used as a convenient tool for determining biocompatible concentrations of the chemical compounds, it may be necessary to empirically adjust the concentrations determined with SW480 cells in order to optimize biocompatibility with other types of cells.
A number of chemical compounds were tested in 6-well plates according to the protocol described in Example 1 to determine the relationship between their cytotoxicity and their ability to promote the uptake and expression of foreign genes in SW480 cells. Unless otherwise noted, except for the control, all plates contained 4 mM L-glutamine as well as gentamicin to retard bacterial growth.
Cytotoxicity assays were performed as follows. SW480 cells (approximately 1×10^6 cells per well) were plated in 1 ml of RPMI in 6-well culture dishes at day zero in the presence of the chemical compound whose cytotoxicity was being tested. Twenty-four hours after seeding the wells, the RPMI medium was removed, and liposomes containing foreign DNA were added to the culture in 1 ml of OPTI-MEM medium, as described in Example 1. The transfection medium also contained the chemical compounds whose cytotoxicity was being tested. Control plates were included that were identical to the test plates, except that the test compounds were not present in the culture medium. Test and control cultures were grown under “static” conditions, i.e., the plates were not shaken, rotated, or otherwise agitated. Each day for a total of 8 days, the cells from one test well and one control well were harvested and viability assessed by staining with trypan blue. […] The chondroitin sulfate used here was as in Example 2.

[3] = pH of aqueous solutions of the compounds; assay type: physicochemical; conditions: stock solutions prepared in culture media diluted with deionized water
Description: The pH values shown in Table 1 were determined in aqueous solutions made by diluting stock solutions prepared in culture media with deionized water.

[4] = test system: SW480 P3 (ATCC #CCL228) human colon carcinoma cells; test: Screening assay for enhancement of transient expression (β-galactosidase gene, liposomal transfection, 6-well plates); assay type: cell-based; conditions: for G Factor (G14): Table 1, values without asterisk, days 4-14 after transfection; for X Factor / K Factor: Table 1; for X Factor: cumulative β-galactosidase vs control, first four days after transfection, compound at the mM given in the table; for K Factor: ratio of first order rate constants of change in expression, control vs compound
Source text: These parameters are called the “X” factor, the “G” factor, and the “K” factor. [formula]
This factor reflects the extent to which a chemical compound added to a transfected cell enhances stabilizes transient expression for the first four days following transfection. […] For example, if expression is doubled in the presence of a compound, […]. […] X may be calculated similarly when the agent in question is a mixture of more than one chemical compound.
Cumulative protein expression, i.e., the values for “A” and “C”, is measured by summing the values measured daily in aliquots of the cultured cells.
2. G factors. G factors differ from the X factor only with respect to the time period evaluated. For calculating a G factor, the amount of protein expressed is measured from days 4-7 or days 4-14, where day 0 is the day on which the foreign DNA is added to the cells. The subscripts denote which of the two time periods provided the basis for measurement. […] As for the X factor, [formula]
3. K factor. The K factor is the ratio of the rate constants for the change in the foreign DNA expression in control transfected cells and in cells exposed to a chemical compound of the subject invention. K is determined according to the following equation: [formula]
wherein “k(DNA)” is the first order rate constant for the change in concentration of the protein expressed from the transgenic DNA, which is expressing protein as a function of time, i.e., [formula]
Values for k(DNA) are derived by using a computer program that plots the log of the foreign protein concentration against time, using the results of transgenic protein measurements that begin about 24 hours after the foreign DNA has been added to the cell. […] However, the program calculates a “best fit” line for each data set, and determines the slope of that portion of the resulting line that corresponds to the period during which protein production is changing. […] Thus, the slope is calculated during this period of decline to provide values for k(DNA) and K that can be compared for the purpose of comparing the efficacy of different chemical compounds.
SW480 P3 (ATCC #CCL228) human colon carcinoma cells (typically, 1×10^6 cells) were plated in the wells of a 6-well tissue culture plate. The number of wells plated reflected the number of days post-transfection during which the experiment would proceed. Each well contained 1 ml of complete media from a 30 ml stock solution containing: 26.4 ml RPMI tissue culture medium, 4 mM L-glutamine, 3.0 ml fetal bovine serum, and 10 μg/ml gentamicin. Cells were cultured at 37° C. in a CO2 incubator with 10% CO2 for 24 hours after being plated, during which time the cells adhered to the plates.
After the 24 hour pre-incubation step, the transfection step was carried out by removing the RPMI and adding 900 μL OPTI-MEM® (Gibco) medium containing 2 μg of VR1412 DNA (Vical, Inc., San Diego, Calif.), which expresses the bacterial β-galactosidase gene under the control of a cytomegalovirus promoter, and 8 μg of a mixture of cationic lipid (1,2-dimyristyloxyproply-3-dimethyl-hydroxyethyl ammonium bromide (e.g., “DMRIE/DOPE”) mixed in equimolar proportions with dioleoylphosphatidylethanolamine) to yield a lipid:DNA molar ratio of 0.99:1. It should be noted that typical transient transfection protocols employ 10 μg DNA per 10^6 cells, but the protocol described here uses less DNA in order to reduce toxicity to the cells. The plates were then incubated for 4 hours at 37° C.
After the 4 hour incubation step, 100 μl of heat deactivated fetal bovine serum (to stop transfection), plus 12.0 μl of 50 mg/ml gentamicin were added to each well.

Molecule: CC(=O)N[C@H]1C(O)O[C@H](CO)[C@H](OS(=O)(=O)O)[C@@H]1O[C@@H]1OC(C(=O)O)=C[C@H](O)[C@H]1O (some centres unmarked) [Chondro ΔDi-4S]
FACTOR G (SW480 cells [1]): 40.1 | FACTOR K (SW480 cells [1]): 0.4 | FACTOR X (SW480 cells [1]): −28.2 | Total β-gal (ng) from 2 × 10^4 Cells in 14 Days (SW480 cells [1]): 184.7 ng | Cytotoxic (SW480 cells [2]): Yes | Cytotoxic (SW480 cells [2]; listed as disaccharide units derived from Type A): cytotoxic

Molecule: CC(=O)N[C@H]1C(O)O[C@H](COS(=O)(=O)O)[C@H](O)[C@@H]1O[C@@H]1OC(C(=O)O)=C[C@H](O)[C@H]1O (some centres unmarked) [Chondro ΔDi-6S]
FACTOR G (SW480 cells [1]): 39.0 | FACTOR K (SW480 cells [1]): 1.3 | FACTOR X (SW480 cells [1]): −32.7 | Total β-gal (ng) from 2 × 10^4 Cells in 14 Days (SW480 cells [1]): 932.2 ng | effectiveness in enhancing transient expression (SW480 cells [1]): better results than the controls | Cytotoxic (SW480 cells [2]): No

Molecule: NCCCC[C@H](N)C(=O)O [L-LYSINE]
pH (H20) [3]: 8.34 | G Factor (G7) ([4]; Table 1, days 4-7 after transfection): 9 | G Factor (G14) [4]: −10

Molecule: CSCC[C@H](N)C(=O)O [METHIONINE]
pH (H20) [3]: 7.41 | G Factor (G14) [4]: 36 | X Factor [4]: 2 | K Factor [4]: 0

Molecule: O=C[C@@H](O)[C@@H](O)[C@H](O)[C@H](O)CO [Mannose]
FACTOR G (SW480 cells [1]): 23.5 | FACTOR K (SW480 cells [1]): 1.0 | FACTOR X (SW480 cells [1]): −23.6 | Total β-gal (ng) from 2 × 10^4 Cells in 14 Days (SW480 cells [1]): 730.4 ng | effectiveness in enhancing transient expression (SW480 cells [1]): effective in enhancing transient expression | Cytotoxic (SW480 cells [2]): No

Molecule: CCOC(=O)CC[C@H](NCc1ccc(N)cc1)C(=O)OCC [N-(4-AMINOBENZYL)-L-GLUTAMIC DIETHYLESTER]
pH (H20) [3]: 6.44 | G Factor (G14) [4]: 8 | X Factor [4]: −35

Molecule: N[C@@H](Cc1ccccc1)C(=O)O [PHENYLALANINE]
pH (H20) [3]: 6.97 | G Factor (G14) [4]: 53 | X Factor [4]: −12 | K Factor [4]: 3

Molecule: O=C(O)[C@@H]1CCCN1 [PROLINE]
pH (H20) [3]: 7.71 | G Factor (G14) [4]: 21 | X Factor [4]: −22

Molecule: N[C@@H](CO)C(=O)O [SERINE]
pH (H20) [3]: 7.4 | G Factor (G14) [4]: 104 | X Factor [4]: 43 | K Factor [4]: 1

Molecule: O=C([O-])c1ccccc1.[Na+] [SODIUM BENZOATE]
pH (H20) [3]: 8.14 | G Factor (G14) [4]: −6 | X Factor [4]: −15 | K Factor [4]: 1

Molecule: NCCS(=O)(=O)O [TAURINE]
pH (H20) [3]: 7.88 | G Factor (G14) [4]: 34 | X Factor [4]: −20 | K Factor [4]: 2

Molecule: N[C@@H](Cc1c[nH]c2ccccc12)C(=O)O [TRYPTOPHAN]
pH (H20) [3]: 6.25 | G Factor (G14) [4]: 67 | X Factor [4]: 55 | K Factor [4]: 2

Molecule: C[C@H](N)C(=O)O [α-ALANINE]
pH (H20) [3]: 7.27 | G Factor (G14) [4]: 35 | X Factor [4]: 31

Molecule: CCC(N)C(=O)O (stereo not drawn) [α-AMINO-n-BUTYRIC ACID]
pH (H20) [3]: 7.58 | G Factor (G14) [4]: 35 | X Factor [4]: −.19 | K Factor [4]: 1

Molecule: O=C(O)CCC(=O)C(=O)O [α-KE[…]]
pH (H20) [3]: 3.75 | G Factor (G14) [4]: 53 | X Factor [4]: 7.28

Molecule: NCCC(=O)O [β-ALANINE]
pH (H20) [3]: 8.38 | G Factor (G14) [4]: 33 | X Factor [4]: 0.2 | K Factor [4]: 1

Molecule: O=S(=O)(O)CC(O)CN(CCO)CCO (centres unmarked) [′3-[BIS(2HYDROXYETHYL AMINO)]-2-HYDROXYL-′1-PROPANE SULFONIC ACID]
pH (H20) [3]: 6.81 | G Factor (G14) [4]: −10 | X Factor [4]: −55

The next lines start with results.

pH (H20) [3]: 7.14
Molecule: NC(=O)CC[C@H](N)C(=O)O [L-GLUTAMINE]
G Factor (G14) [4]: 23 | X Factor [4]: −13

pH (H20) [3]: 8.14
Molecule: C[C@@H](O)[C@H](N)C(=O)O [L-THREONINE]
G Factor (G14) [4]: 40 | X Factor [4]: 28 | K Factor [4]: 1

pH (H20) [3]: 7.88
Molecule: CC(C)C[C@H](N)C(=O)O [LEUCINE]
G Factor (G14) [4]: 32 | X Factor [4]: −13

pH (H20) [3]: 4.34
Molecule: CSCC[C@H](NC=O)C(=O)O [N-FORMYL-L-METHIONINE]
G Factor (G14) [4]: 63 | X Factor [4]: 26

pH (H20) [3]: 6.91
Molecule: O=C(O)c1cccnc1 [NICOTINIC ACID]
G Factor (G14) [4]: 87 | X Factor [4]: 12 | K Factor [4]: 1

pH (H20) [3]: 6.52
Molecule: NC(=O)SC[C@H](N)C(=O)O [S-CARBAMYL-L-CYSTEINE]
G Factor (G14) [4]: −74 | X Factor [4]: −76

pH (H20) [3]: 7.88
Molecule: N[C@@H](Cc1ccc(O)cc1)C(=O)O [TYROSINE]
G Factor (G14) [4]: 52 | X Factor [4]: 36 | K Factor [4]: 2

pH (H20) [3]: 8.12
Molecule: CC(C)[C@H](N)C(=O)O [VALINE]
G Factor (G14) [4]: 40 | X Factor [4]: −18 | K Factor [4]: 2

pH (H20) [3]: 3.45
Molecule: MELANIN
effect on transient expression [4]: significantly suppress transient expression
